Results taken from publication PMC6982996, “Discovery of [1,2,4]Triazole Derivatives as New Metallo-β-Lactamase Inhibitors” (Molecules, 2019).
Read-outs that look alike come from different tables or passages of the source.

Tests used:
[1] = molecular target: T1, VIM-2 (Escherichia coli, UniProt Q5U7L7); assay: VIM-2 inhibition assay (FC5 fluorogenic substrate); format: biochemical; settings: for inhibition at 10 µM / inhibition at 100 µM: mean ± SD (n = 3)
T1 construct: Li's Laboratory, Sichuan University (collaborator, a gift and not a purchase)
Experimental: (§1) All the target compounds were freshly prepared in 100 mM DMSO stock solutions. All the MBL and SBL enzymes used in this study were obtained from our collaborator, Li’s Laboratory in Sichuan University. Each compound was initially evaluated for inhibitory activity to MBL and SBL enzymes at 100 and 10 μM, by preincubation with the appropriate amount of enzymes in the assay buffer for 10 min, followed by adding the substrate FC5 to initiate the reactions, and monitoring the fluorescence at λex of 380 nm and λem of 460 nm. The IC50 values for the compounds (with 10 different concentrations in threefold dilution) were further determined. All determinations were tested in triplicate. The IC50 values were obtained from the plot of activity versus inhibitor concentration by using the GraphPad Prism software.

[2] = molecular target: T2, NDM-1 (Klebsiella pneumoniae, UniProt C7C422); assay: NDM-1 inhibition assay (FC5 fluorogenic substrate); format: biochemical; settings: mean ± SD (n = 3)
T2 construct: Li's Laboratory, Sichuan University (collaborator, a gift and not a purchase)
T2 sequence (C7C422 29-270, looked up, species assumed): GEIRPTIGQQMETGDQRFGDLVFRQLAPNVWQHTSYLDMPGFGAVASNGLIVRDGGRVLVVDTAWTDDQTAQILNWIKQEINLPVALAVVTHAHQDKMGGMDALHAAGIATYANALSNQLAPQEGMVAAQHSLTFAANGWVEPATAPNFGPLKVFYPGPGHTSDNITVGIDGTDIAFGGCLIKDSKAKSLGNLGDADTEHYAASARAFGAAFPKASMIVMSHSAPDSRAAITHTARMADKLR
Experimental: (§2) Then, we tested all the target compounds against other B1 MBL enzymes, including NDM-1, IMP-1, VIM-1, and VIM-5 (Table 1); all the assay conditions (including enzyme/substrate concentrations) are the same as that previously used. […]. […].
as §1

[3] = molecular target: T3, VIM-1 (Pseudomonas aeruginosa, UniProt A0A0F7KYQ8); assay: VIM-1 inhibition assay (FC5 fluorogenic substrate); format: biochemical; settings: @ 100 μM; mean ± SD (n = 3)
T3 construct: Li's Laboratory, Sichuan University (collaborator, a gift and not a purchase)
Experimental: as §2, §1

[4] = system: VIM-5; assay: VIM-5 inhibition assay (FC5 fluorogenic substrate); format: biochemical; settings: @ 100 μM; mean ± SD (n = 3)
Experimental: as §2, §1

[5] = molecular target: T4, KPC-2 (Klebsiella pneumoniae, UniProt Q9F663); assay: KPC-2 SBL inhibition assay (counter screen); format: biochemical; settings: mean ± SD (n = 3)
T4 construct: Li's Laboratory, Sichuan University (collaborator, a gift and not a purchase)
T4 sequence (Q9F663 25-293, looked up): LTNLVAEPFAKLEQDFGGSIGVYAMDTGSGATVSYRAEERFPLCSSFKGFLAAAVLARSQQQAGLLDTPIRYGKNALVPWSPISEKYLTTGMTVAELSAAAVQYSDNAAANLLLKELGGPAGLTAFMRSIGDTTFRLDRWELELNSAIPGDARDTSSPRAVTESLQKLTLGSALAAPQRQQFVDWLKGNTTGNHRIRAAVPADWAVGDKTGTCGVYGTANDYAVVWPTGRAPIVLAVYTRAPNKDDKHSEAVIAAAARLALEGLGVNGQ
Experimental: (§3) Considering that MBLs and SBLs are two catalogs of β-lactamases, we further tested the compound 5l against some representative SBL enzymes, including KPC-2 (Klebsiella pneumoniae carbapenemase 2), TEM-1, AmpC, and OXA-48 (Oxacillinase 48), with the aim of investigating its selectivity; particularly, this is used as a counter screening to indicate the specific inhibition to MBLs. […] […].
as §1

[6] = molecular target: T5, TEM-1 (Escherichia coli, UniProt P62593); assay: TEM-1 SBL inhibition assay (counter screen); format: biochemical; settings: mean ± SD (n = 3)
T5 construct: Li's Laboratory, Sichuan University (collaborator, a gift and not a purchase)
T5 sequence (P62593 24-286 limits assumed): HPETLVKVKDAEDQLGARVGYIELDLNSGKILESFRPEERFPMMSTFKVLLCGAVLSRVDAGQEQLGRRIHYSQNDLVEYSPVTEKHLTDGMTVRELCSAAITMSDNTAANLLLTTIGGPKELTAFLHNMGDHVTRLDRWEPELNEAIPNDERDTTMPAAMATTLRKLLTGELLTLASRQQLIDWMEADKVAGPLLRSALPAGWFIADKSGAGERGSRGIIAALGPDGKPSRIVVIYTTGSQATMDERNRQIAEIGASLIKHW
Experimental: (§4) Considering that MBLs and SBLs are two catalogs of β-lactamases, we further tested the compound 5l against some representative SBL enzymes, including KPC-2 (Klebsiella pneumoniae carbapenemase 2), TEM-1, AmpC, and OXA-48 (Oxacillinase 48), with the aim of investigating its selectivity; particularly, this is used as a counter screening to indicate the specific inhibition to MBLs.
as §1

[7] = system: AmpC; assay: AmpC SBL inhibition assay (counter screen); format: biochemical; settings: 10 μM; mean ± SD (n = 3)
Experimental: as §4, §1

[8] = molecular target: T6, OXA-48 (Klebsiella pneumoniae, UniProt Q6XEC0); assay: OXA-48 SBL inhibition assay (counter screen); format: biochemical
T6 construct: Li's Laboratory, Sichuan University (collaborator, a gift and not a purchase)
T6 sequence (Q6XEC0 23-265 limits assumed): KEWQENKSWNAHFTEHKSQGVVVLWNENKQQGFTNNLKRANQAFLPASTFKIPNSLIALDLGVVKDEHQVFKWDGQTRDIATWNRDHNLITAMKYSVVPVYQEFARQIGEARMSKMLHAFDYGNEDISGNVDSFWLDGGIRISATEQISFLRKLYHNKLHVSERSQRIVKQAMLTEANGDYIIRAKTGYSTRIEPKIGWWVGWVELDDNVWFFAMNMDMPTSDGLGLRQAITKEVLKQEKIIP
Experimental: as §3, §1

[9] = molecular target: T1, VIM-2
[10] = molecular target: T2, NDM-1; settings: Figure 1, reported inhibitors; read-out: NDM-1 IC50 (reported MBL inhibitors); cited from earlier work
[11] = system: B3 L1 MBL; set-up: method as in PMID 17999929, PMID 20625539, PMID 25893049; settings: Figure 1, reported inhibitor; read-out: L1 IC50 (reported MBL inhibitors); cited from earlier work
[12] = molecular target: T7, IMP-1 (Serratia marcescens, UniProt P52699); settings: Figure 1, reported inhibitors; read-out: IMP-1 IC50 (reported MBL inhibitors); cited from earlier work
T7 construct: Li's Laboratory, Sichuan University (collaborator, a gift and not a purchase)
T7 sequence (P52699 19-246 limits assumed): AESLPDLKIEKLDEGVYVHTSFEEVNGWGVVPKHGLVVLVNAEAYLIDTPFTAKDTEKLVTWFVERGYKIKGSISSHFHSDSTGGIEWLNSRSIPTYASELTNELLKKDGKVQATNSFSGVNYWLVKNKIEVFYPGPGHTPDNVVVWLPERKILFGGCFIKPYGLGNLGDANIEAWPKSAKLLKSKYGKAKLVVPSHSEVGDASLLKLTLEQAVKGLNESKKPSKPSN

[13] = system: CfiA; settings: Figure 1, reported natural product; read-out: CfiA IC50 (reported MBL inhibitors); cited from earlier work
[14] = molecular target: T7, IMP-1; assay: IMP-1 inhibition assay (FC5 fluorogenic substrate); format: biochemical; settings: mean ± SD (n = 3)
Experimental: as §2, §1

[15] = Figure 1, reported inhibitors; read-out: VIM-2 IC50 (reported MBL inhibitors); cited from earlier work

Brc1ccc(-c2nnc3n2CCCS3)cc1 [5l, 3-(4-Bromophenyl)-6,7-dihydro-5H-[1,2,4]triazolo[3,4-b][1,3]thiazine]
IC50 ([1]; 10 concentrations in threefold dilution, triplicate, read-out: IC50 against VIM-2): 38.4 µM
inhibition at 10 µM [1]: 53%
inhibition at 100 µM [1]: 86 ± 5%
inhibition at 10 µM [2]: 10%
inhibition at 100 µM [2]: 8 ± 1%
inhibition at 100 µM [3]: 23 ± 1%
Inhibition % VIM-5 [4]: 33 ± 2/– %
inhibition at 10 µM ([5]; 10 μM): 2 ± 1%
Inhibition % KPC-2 ([5]; 100 μM): No or low inhibitory activities
inhibition at 100 µM ([5]; 100 μM): 8 ± 2%
inhibition at 10 µM ([6]; 10 μM): 9 ± 1%
Inhibition % TEM-1 ([6]; 100 μM): No or low inhibitory activities
inhibition at 100 µM ([6]; 100 μM): 20 ± 3%
Inhibition % AmpC [7]: 13 ± 2%
Inhibition % OXA-48 ([8]; 100 μM, mean ± SD (n = 3)): No or low inhibitory activities
inhibition at 10 µM ([8]; read-out: Inhibition % OXA-48): 7 ± 1%
inhibition at 100 µM ([8]; read-out: Inhibition % OXA-48): 17 ± 2%

C[C@H](CS)C(=O)N[C@@H](Cc1coc2ccccc12)B(O)O [III]
IC50 [9, 15]: 440 nM
IC50 [10]: 37.9 µM

C[C@H](CS)C(=O)N[C@@H](C(=O)O)c1ccc(O)cc1 [II]
IC50 [9, 15]: 13.7 nM
IC50 [10]: 3.57 µM

O=C(CSc1nnc(-c2ccccc2C(=O)O)[nH]1)Nc1nc2ccccc2s1 [IV]
Ki ([9]; Figure 1, reported inhibitor; read-out: VIM-2 Ki (reported MBL inhibitors); cited from earlier work): 1200 nM

NCCN[C@H]1CC[C@H](CC(=O)N[C@H]2Cc3cccc(C(=O)O)c3OB2O)CC1 [IX, taniborbactam]
IC50 [9, 15]: 0.5 nM

Cc1ccccc1-c1nnc(S)n1/N=C/c1ccccc1C(=O)O [V]
IC50 [11]: 15 µM

N[C@@H](CN[C@@H](CN[C@@H](CC(=O)O)C(=O)O)C(=O)O)C(=O)O [XI, AMA]
IC50 [9, 15]: 9600 nM
IC50 [10]: 4 µM

O=C(/C=C/c1ccc(O)c(O)c1)O[C@H](Cc1ccc(O)c(O)c1)C(=O)O [XII, Rosmarinic acid]
IC50 ([9]; read-out: VIM-2 IC50 (reported MBL inhibitors); Figure 1, reported inhibitors; cited from earlier work): 41500 nM

CO[C@@H]1O[C@@H](C)Cc2oc3cc(O)c(O)c(C(=O)O)c3c(=O)c21 [X]
IC50 [12]: 113 µM
IC50 [13]: 29 µM

O=C(O)c1ccccc1-c1nnc2n1C(=O)CS2 [compound 15, 2-(5-Oxo-5,6-dihydrothiazolo[2,3-c][1,2,4]triazol-3-yl)benzoic acid]
inhibition at 10 µM [1]: 18%
inhibition at 100 µM [1]: 21 ± 2%
inhibition at 10 µM [2]: 10%
inhibition at 100 µM [2]: 8 ± 1%
inhibition at 10 µM ([14]; @ 10 μM): 19%
inhibition at 100 µM ([14]; @ 100 μM): 13 ± 1%
inhibition at 100 µM [3]: 25 ± 2%
Inhibition % VIM-5 [4]: 10 ± 2/– %
